{"source": "PubChem BioAssay AID330", "about": "(DTP/NCI, 2004)", "system": "P388 leukemia ip, CD2F1 mice, survival T/C", "assay": "NCI In Vivo Anticancer Drug Screen. Data for tumor model P388 Leukemia (intraperitoneal) in CD2F1 (CDF1) mice", "details": "endpoint: median survival time, higher = longer survival", "outline": "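Mice carrying the transplanted tumor received test compound or vehicle. Survival was recorded in each group, and the value is the treated-group measurement divided by that of the vehicle-treated control group.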", "key": {"[1]": {"details": "dose: 25.0 mg/kg/injection, schedule: Q01DX009 (ip), vehicle: saline"}, "[2]": {"details": "dose: 50.0 mg/kg/injection, schedule: Q01DX009 (ip), vehicle: saline"}, "[3]": {"details": "dose: 100.0 mg/kg/injection, schedule: Q01DX009 (ip), vehicle: saline"}, "[4]": {"details": "dose: 200.0 mg/kg/injection, schedule: Q01DX009 (ip), vehicle: saline"}, "[5]": {"details": "dose: 400.0 mg/kg/injection, schedule: Q01DX009 (ip), vehicle: saline"}}, "note": "Values joined by “and” are separate entries in the source; they are usually repeats but may differ in a detail not shown here. Equal values may be shown once. Inconclusive results and toxic doses are left out.", "data": [{"smiles": "CCOc1cccc(Cc2c[nH]c(=O)[nH]c2=O)c1", "values": [{"measurement": "T/C", "setting": "dose: 60.0 mg/kg/injection, schedule: Q01DX005 (ip), vehicle: saline with Tween-80", "result": "94 % of control"}, {"measurement": "T/C", "setting": "dose: 120.0 mg/kg/injection, schedule: Q01DX005 (ip), vehicle: saline with Tween-80", "result": "92 % of control"}, {"measurement": "T/C", "setting": "dose: 240.0 mg/kg/injection, schedule: Q01DX005 (ip), vehicle: saline with Tween-80", "result": "90 % of control"}]}, {"smiles": "COc1cc(N(CCCl)CCCl)ccc1NC(=O)c1ccccc1", "values": [{"measurement": "T/C", "setting": "dose: 6.25 mg/kg/injection, schedule: Q01DX009 (ip), vehicle: saline", "result": "150 % of control"}, {"measurement": "T/C", "setting": "dose: 6.25 mg/kg/injection, schedule: Q04DX003 (ip), vehicle: saline with Tween-80", "result": "109 % of control"}, {"measurement": "T/C", "setting": "dose: 12.5 mg/kg/injection, schedule: Q01DX009 (ip), vehicle: saline", "result": "168 % of control"}, {"measurement": "T/C", "setting": "dose: 12.5 mg/kg/injection, schedule: Q04DX003 (ip), vehicle: saline with Tween-80", "result": "118 % of control"}, {"measurement": "T/C", "setting": "dose: 16.5 mg/kg/injection, schedule: Q04DX003 (ip), vehicle: saline sonified", "result": "113 % of control"}, {"measurement": "T/C", "setting": "[1]", "result": "100 % of control"}, {"measurement": "T/C", "setting": "dose: 37.5 mg/kg/injection, schedule: Q04DX003 (ip), vehicle: saline sonified", "result": "181 % of control"}]}, {"smiles": "O=C(NC1CCCCC1)Oc1ccc[nH]c1=O", "values": [{"measurement": "T/C", "setting": "[1]", "result": "92 % of control and 93 % of control"}, {"measurement": "T/C", "setting": "dose: 25.0 mg/kg/injection, schedule: Q01DX009 (sc), vehicle: saline with Tween-80", "result": "101 % of control and 109 % of control"}, {"measurement": "T/C", "setting": "[2]", "result": "102 % of control and 104 % of control"}, {"measurement": "T/C", "setting": "dose: 50.0 mg/kg/injection, schedule: Q01DX009 (sc), vehicle: saline with Tween-80", "result": "106 % of control and 107 % of control"}, {"measurement": "T/C", "setting": "[3]", "result": "105 % of control and 98 % of control"}, {"measurement": "T/C", "setting": "dose: 100.0 mg/kg/injection, schedule: Q01DX009 (sc), vehicle: saline with Tween-80", "result": "102 % of control and 117 % of control"}, {"measurement": "T/C", "setting": "[4]", "result": "102 % of control and 105 % of control"}, {"measurement": "T/C", "setting": "dose: 200.0 mg/kg/injection, schedule: Q01DX009 (sc), vehicle: saline with Tween-80", "result": "108 % of control and 111 % of control"}, {"measurement": "T/C", "setting": "[5]", "result": "116 % of control and 118 % of control"}, {"measurement": "T/C", "setting": "dose: 400.0 mg/kg/injection, schedule: Q01DX009 (sc), vehicle: saline with Tween-80", "result": "104 % of control and 107 % of control"}, {"measurement": "T/C", "setting": "dose: 600.0 mg/kg/injection, schedule: Q01DX009 (sc), vehicle: saline with Tween-80", "result": "102 % of control and 113 % of control"}]}, {"smiles": "CC1C(O)C(C)C(c2ccccc2)N(C)C1c1ccccc1", "note": "(configuration not stated)", "values": [{"measurement": "T/C", "setting": "dose: 50.0 mg/kg/injection, schedule: Q01DX005 (ip), vehicle: saline with Tween-80", "result": "100 % of control"}, {"measurement": "T/C", "setting": "dose: 100.0 mg/kg/injection, schedule: Q01DX005 (ip), vehicle: saline with Tween-80", "result": "106 % of control"}, {"measurement": "T/C", "setting": "dose: 200.0 mg/kg/injection, schedule: Q01DX005 (ip), vehicle: saline with Tween-80", "result": "106 % of control"}]}, {"smiles": "O=C(CCN1C(=O)c2ccccc2C1=O)c1cnc(N2C(=O)c3ccccc3C2=O)[nH]1", "values": [{"measurement": "T/C", "setting": "dose: 20.0 mg/kg/injection, schedule: Q01DX005 (ip), vehicle: Klucel (hydroxypropylcellulose) (HPC)", "result": "98 % of control"}, {"measurement": "T/C", "setting": "dose: 40.0 mg/kg/injection, schedule: Q01DX005 (ip), vehicle: Klucel (hydroxypropylcellulose) (HPC)", "result": "97 % of control"}, {"measurement": "T/C", "setting": "dose: 80.0 mg/kg/injection, schedule: Q01DX005 (ip), vehicle: Klucel (hydroxypropylcellulose) (HPC)", "result": "91 % of control"}]}, {"smiles": "COc1cc(-c2ccc(N=Nc3cc(S(=O)(=O)O)c4ccccc4c3O)c(OC)c2)ccc1N=Nc1cc(S(=O)(=O)O)c2ccccc2c1O", "values": [{"measurement": "T/C", "setting": "[3]", "result": "99 % of control"}, {"measurement": "T/C", "setting": "[4]", "result": "104 % of control"}, {"measurement": "T/C", "setting": "[5]", "result": "115 % of control"}]}, {"smiles": "COc1ccc(NCS(=O)(=O)O)cc1", "values": [{"measurement": "T/C", "setting": "dose: 100.0 mg/kg/injection, schedule: Q04DX003 (ip), vehicle: saline", "result": "100 % of control"}, {"measurement": "T/C", "setting": "dose: 200.0 mg/kg/injection, schedule: Q04DX003 (ip), vehicle: saline", "result": "108 % of control"}, {"measurement": "T/C", "setting": "dose: 400.0 mg/kg/injection, schedule: Q04DX003 (ip), vehicle: saline", "result": "104 % of control"}]}, {"smiles": "COc1cccc2c1C(=O)c1c(O)c3c(c(O)c1C2=O)CC(O)(C(=O)C(C)C)CC3OC1CC(N)C(O)C(C)O1", "note": "(configuration not stated)", "values": [{"measurement": "T/C", "setting": "dose: 3.13 mg/kg/injection, schedule: Q01DX009 (ip), vehicle: water", "result": "117 % of control"}, {"measurement": "T/C", "setting": "dose: 4.7 mg/kg/injection, schedule: Q04DX003 (ip), vehicle: water", "result": "115 % of control"}, {"measurement": "T/C", "setting": "dose: 6.25 mg/kg/injection, schedule: Q01DX009 (ip), vehicle: water", "result": "117 % of control"}, {"measurement": "T/C", "setting": "dose: 9.4 mg/kg/injection, schedule: Q04DX003 (ip), vehicle: water", "result": "110 % of control"}, {"measurement": "T/C", "setting": "dose: 18.8 mg/kg/injection, schedule: Q04DX003 (ip), vehicle: water", "result": "101 % of control"}, {"measurement": "T/C", "setting": "dose: 75.0 mg/kg/injection, schedule: Q04DX003 (ip), vehicle: water", "result": "92 % of control"}]}, {"smiles": "CNC(=O)N(C)C/C=C/CN(C)C(=O)NC", "values": [{"measurement": "T/C", "setting": "[2]", "result": "105 % of control"}, {"measurement": "T/C", "setting": "[3]", "result": "102 % of control"}, {"measurement": "T/C", "setting": "[4]", "result": "102 % of control"}]}]}
